Results published in patent US8246966B2, “Trypanosome microsome system and uses thereof” (priority 2006, dated 2012).

Key:
[1] = test system: T. brucei microsomes (TbRM); test: Post-translational import of VSG—11786 into T. brucei microsomes, proteinase K protection (Example 2); assay type: biochemical, Trypanosoma brucei; conditions: for effect on protein import into TbRM (in words): VSG—11786 substrate
Protocol: FIGS. 2A and 2B show the effect of protein translocation inhibitors on TbRM. FIG. 2A presents the protocol used for import of VSG—117500. In FIG. 2B, SG—117500 mRNA was translated in rabbit reticulocyte lysate with 1.5 equivalents T. brucei cytosol (pretreated with MAL3-101 (0.3 μM), MAL3-51 (1 μM), CJ21,058 (20 μM) or equisetin (50 μM)) for 60 minutes. The reaction mixtures were treated with cycloheximide (50 μg/ml, final concentration) and incubated with TbRM (one equivalent). The mixture was incubated for 60 minutes at 37° C. and digested with proteinase K digestion (30 μg/ml, final concentration) for 60 minutes on ice. Proteins were resolved by SDS-PAGE and detected by phosphorimaging. In lanes 1 and 2, TbRM were pretreated with DMSO. Lane 1 is untreated VSG—117500 with TbRM; lane 2 is VSG—117500 incubated with TbRM and treated with proteinase K. In lanes 3 and 4 TbRM were pretreated with MAL3-101. Lane 3 is VSG—117500 incubated with TbRM; lane 4 is VSG—117500 incubated with TbRM and then treated with proteinase K. In lanes 5 and 6 TbRM pretreated with MAL3-51. Lane 5 is VSG—117500 incubated with TbRM; lane 6 is VSG—117500 incubated with TbRM and then treated with proteinase K. In lanes 7 and 8 TbRM were pretreated with CJ-21,058). Lane 7 is VSG—117500 incubated with TbRM; lane 8 is VSG—117500 incubated with ThRM and then treated with proteinase K. In lanes 9 and 10 TbRM were pretreated with equisetin). Lane 9 is VSG—117500 incubated with TbRM; lane 10 is VSG—117500 incubated with TbRM and then treated with proteinase K.
Protein import into TbRM. Two micrograms (μg) of RNA encoding a truncated substrate (e.g., VSG—11786) was translated in […] of a reaction mixture containing 20 μl rabbit reticulocyte lysate, 60 μM amino acid mixture (-Met, -Cys), and 2.4 μCi [^35S]Promix. The reaction was incubated at 37° C. for 15 minutes. Cycloheximide (50 μg/ml, final concentration) was used to stop further translation, and the mixture was divided into two portions. T. brucei microsomes (ThRM) (1 equivalent) was added to one aliquot, and to the other portion an equal volume of RM buffer was added. The reactions were incubated at 37° C. for 45 minutes for protein import into TbRM to take place post-translationally.
Each reaction mixture was divided into three (each 10 μl) and treated with one of the following on ice for one hour: (I) RM buffer; (ii) 30 μg/ml protease K; (iii) nonidet P-40 (NP-40) (2%, final concentration) followed by protease K (30 μg/ml, final concentration). PMSF (20 mM final concentration) was added to stop protease K digestion. Samples were precipitated with an equal volume of cold (NH4)2SO4 sulphate (saturated) and resolved by sodium dodecyl sulfate-polyacrylamide gel electrophoresis (SDS-PAGE) (4% total acrylamide, 3% cross linker in tricene-HCl system) (Fekkes et al., 1998, Mol Microbiol; 29(5):1179-90). The gels were dried, and radioactive polypeptides detected with a phosphorimager (Molecular Imager FX, (BioRad). Data bands were quantitated with QuantityOne software (BioRad), and graphs were plotted with DeltaGraph (Red Rock software).
A small molecule inhibitor of Hsp70-Hsp40 interaction blocks protein translocation into TbRM. Post-translational ER protein translocation in Saccharomyces cerevisiae and E. coli requires cytosolic chaperones. In the yeast S. cerevisiae, for example, Ssa1p (Hsp70) and co-chaperone Ydj1p (Hsp40) (Becker et al., 1996, Mol Cell Biol; 16(8):4378-86; Ngosuwan et al., 2003, J Biol Chem; 278(9):7034-42; and McClellan et al., 1998, Mol Biol Cell; 9(12): 3533-45) as well as Kar2p/BiP stimulate post-translational protein import (Lyman and Schekman, 1995, J Cell Biol; 131(5):1163-71; Panzner et al., 1995, Cell; 81(4):561-70; and Holkeri et al., 1998, J Cell Sci; 111:749-757). […]

[2] = test system: Blood stream form T. brucei CA427; test: Trypanocidal activity against cultured blood stream form T. brucei (Example 2); assay type: cell-based, Trypanosoma brucei; conditions: for IC50: read-out: concentration at which fifty percent of parasites were killed (IC50)
Protocol: Blood stream form T. brucei CA427 were grown in HMI-9 media to the cell density of 10^6. The cells were then transferred to 96 well plates with the addition of different concentrations of MAL3-101, MAL3-51, CJ-21,058 or equisetin. In controls, DMSO was added. Cell density was calculated at the end of 24 hours, and the graph was plotted.
Cell culture. Blood stream form T. brucei CA427 was cultured in HMI-9 medium (Hirumi and Hirumi, 1994, Parasitol Today; 10:80-84) to a maximum density of 10^6/ml. For use in drug sensitivity studies, cells were seeded at […], and one hundred microliters added to each well of a 96-well plate, with or without test compounds at stated concentrations, as discussed in Brief Descriptions of FIGS. 1-4. In controls, DMSO, the solvent for the compounds, was added. Cells were counted after 24 or 48 hours, using a hemocytometer, and the data graphed. All experiments were performed in triplicates.

Structure (SMILES)	effect on protein import into TbRM (in words) [1]	inhibition of translocation of VSG—11786 into TbRM ([1]; equisetin 25 μM) [%]	IC50 ([2]; cultured T. brucei) [µM]	inhibition of translocation of VSG—11786 into TbRM ([1]; CJ-21,058 20 μM) [%]	VSG—11786 translocated into TbRM (protection from proteinase K digestion) ([1]; MAL3-101 present (0.3 μM in FIG. 2B legend), DMSO control 80%) [%]	trypanocidal activity (in words) [2]	concentration at which one hundred percent of parasites were killed (IC100) ([2]; cultured T. brucei) [nM]
C/C=C/[C@@H]1C=C[C@@H]2C[C@H](C)CC[C@H]2[C@]1(C)/C(O)=C1/C(=O)[C@H](CO)N(C)C1=O [equisetin]	inhibited import	95	3.3				
C/C=C/C1C(C)=CC2CC(C)CCC2C1(C)/C(O)=C1/C(=O)C(CO)N(C)C1=O (centres unmarked) [CJ-21,058]	inhibited import		7	95			
CCCCCCN(C(=O)CCCCCN1C(=O)NC(c2ccc(-c3ccccc3)cc2)C(C(=O)OCc2ccccc2)=C1C)C(C(=O)NCCCC)c1ccc(OCC(=O)OC)c(C(=O)OC)c1 (centres unmarked) [MAL3-101]	blocked import		0.125		13	killed T. brucei at sub-micromolar level	500
